Data published in ChEMBL document CHEMBL1130641, “5,5-trans lactone-containing inhibitors of serine proteases: identification of a novel, acylating thrombin inhibitor” (Bioorg Med Chem Lett, 1998).
Values belong to the compound of their own block, whether it stands above or below them.

Key:
[1] = target: Prothrombin (Homo sapiens, UniProt P00734); experiment: Inhibition of thrombin
[2] = target: Serine protease 1 (Homo sapiens, UniProt P07477); experiment: Inhibition of trypsin
[3] = target: Coagulation factor X (Homo sapiens, UniProt P00742); experiment: Compound was evaluated for the inhibition of Coagulation factor X
[4] = target: T1, Neutrophil elastase (Homo sapiens, UniProt P08246); experiment: Compound was evaluated for the inhibition of human leukocyte elastase(HLE).
T1 sequence (P08246 whole entry): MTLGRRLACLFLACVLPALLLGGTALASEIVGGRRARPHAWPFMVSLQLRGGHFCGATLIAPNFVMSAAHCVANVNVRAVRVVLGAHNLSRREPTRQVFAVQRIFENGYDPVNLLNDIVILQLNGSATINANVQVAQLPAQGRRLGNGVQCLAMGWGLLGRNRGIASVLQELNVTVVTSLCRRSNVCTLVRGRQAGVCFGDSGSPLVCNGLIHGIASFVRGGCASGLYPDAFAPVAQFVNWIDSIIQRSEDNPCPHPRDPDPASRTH

Serine protease 1, sequence (P07477 whole entry): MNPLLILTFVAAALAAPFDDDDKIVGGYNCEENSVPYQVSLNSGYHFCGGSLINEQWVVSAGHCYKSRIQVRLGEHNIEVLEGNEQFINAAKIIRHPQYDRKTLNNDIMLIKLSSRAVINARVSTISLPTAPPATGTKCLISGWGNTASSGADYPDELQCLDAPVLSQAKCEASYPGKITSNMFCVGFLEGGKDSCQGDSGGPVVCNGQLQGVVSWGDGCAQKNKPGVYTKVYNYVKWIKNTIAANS
Coagulation factor X, sequence (P00742 41-179 limits assumed): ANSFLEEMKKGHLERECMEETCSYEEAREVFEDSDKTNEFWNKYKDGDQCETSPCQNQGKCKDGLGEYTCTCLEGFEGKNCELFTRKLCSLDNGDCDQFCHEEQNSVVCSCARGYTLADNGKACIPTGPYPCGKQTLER
Coagulation factor X, sequence (P00742 235-488 limits assumed): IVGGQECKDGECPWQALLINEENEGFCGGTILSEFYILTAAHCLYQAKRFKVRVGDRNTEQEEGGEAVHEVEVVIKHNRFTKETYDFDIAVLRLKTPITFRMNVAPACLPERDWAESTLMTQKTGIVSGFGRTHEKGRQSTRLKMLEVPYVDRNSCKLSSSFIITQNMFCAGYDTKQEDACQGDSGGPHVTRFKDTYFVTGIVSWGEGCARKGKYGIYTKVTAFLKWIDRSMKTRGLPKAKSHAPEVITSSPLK

Compound: N=C(N)c1ccc(C[C@H]2C(=O)O[C@H]3CCC[C@@H]32)cc1
IC50 [1]: 16.8 µM
IC50 [2]: 0.22 µM

Compound: C=CC[C@H]1C(=O)O[C@H]2CCC[C@@H]21
IC50 [1]: > 50 µM

Compound: N=C(N)c1cccc(C[C@H]2C(=O)O[C@H]3CCC[C@@H]32)c1
IC50 [1]: > 100 µM
IC50 [2]: 3.3 µM

Compound: CC(C)=CC(=O)C[C@@H]1C(=O)O[C@H]2CCC[C@@H]21
IC50 [1]: 0.021 µM

Compound: CC(C)=CC(=O)C[C@@H]1C(=O)O[C@H]2CCCC21 (some centres not stated)
IC50 [1]: 0.019 µM

More lines, in order of falling IC50 [1], values ahead:

IC50 [1]: 98 µM
Compound: C=CC[C@@H]1C(=O)O[C@H]2CCC[C@@H]21

IC50 [1]: 92 µM
Compound: O=C1O[C@H]2CCC[C@@H]2[C@H]1Cc1ccccc1

IC50 [1]: 73 µM
Compound: O=C1O[C@H]2CCC[C@@H]2[C@@H]1Cc1ccccc1

IC50 [3]: 10.3 µM
IC50 [1]: 0.13 µM
IC50 [2]: 0.04 µM
Compound: N=C(N)CCCC[C@H]1C(=O)O[C@H]2CCC[C@@H]21

IC50 [3]: > 20 µM
IC50 [4]: > 10 µM
IC50 [1]: 0.046 µM
IC50 [2]: 0.07 µM
Compound: CC(C)=CC(=O)C[C@H]1C(=O)O[C@H]2C[C@]3(C)C4=CC[C@@H]5[C@](C)(CC[C@H]6OC(=O)[C@@]56C)[C@H]4CC[C@@]3(C)[C@@H]21
